Laboratory results as given in PubChem BioAssay AID256 (DTP/NCI, 2004).
Values joined by “and” are separate entries in the source; they are usually repeats but may differ in a detail not shown here. Equal values may be shown once. Inconclusive results and toxic doses are left out.

Test system: CD2F1 mice, L1210 leukemia ip, survival T/C
Test: NCI In Vivo Anticancer Drug Screen. Data for tumor model L1210 Leukemia (intraperitoneal) in CD2F1 (CDF1) mice
Details: higher = longer survival
Procedure, shortened: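 Each value reflects a quotient of treated over vehicle control outcomes in mice with a transplanted tumor.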

[1] = endpoint: mean survival time, dose: 25.0 mg/kg/injection, schedule: Q04DX002 (ip), vehicle: saline with Tween-80
[2] = endpoint: mean survival time, dose: 50.0 mg/kg/injection, schedule: Q04DX002 (ip), vehicle: saline with Tween-80
[3] = endpoint: mean survival time, dose: 100.0 mg/kg/injection, schedule: Q04DX003 (ip), vehicle: saline with Tween-80
[4] = endpoint: mean survival time, dose: 25.0 mg/kg/injection, schedule: Q01DX005 (ip), vehicle: water
[5] = endpoint: mean survival time, dose: 50.0 mg/kg/injection, schedule: Q01DX005 (ip), vehicle: water
[6] = endpoint: mean survival time, dose: 100.0 mg/kg/injection, schedule: Q01DX005 (ip), vehicle: water

## O=C1C(Cl)(Cl)C(=O)C(Cl)(Cl)C(=O)C1(Cl)Cl
[1]
  T/C: 97 % of control
[2]
  T/C: 94 % of control

## Cc1ccc2cc3c(cc2c1C)sc1ccccc13
endpoint: mean survival time, dose: 8.8 mg/kg/injection, schedule: Q04DX003 (ip), vehicle: other
  T/C: 108 % of control
endpoint: mean survival time, dose: 17.5 mg/kg/injection, schedule: Q04DX003 (ip), vehicle: other
  T/C: 115 % of control
endpoint: mean survival time, dose: 35.0 mg/kg/injection, schedule: Q04DX003 (ip), vehicle: other
  T/C: 108 % of control
endpoint: mean survival time, dose: 70.0 mg/kg/injection, schedule: Q04DX003 (ip), vehicle: other
  T/C: 97 % of control
endpoint: mean survival time, dose: 140.0 mg/kg/injection, schedule: Q04DX003 (ip), vehicle: other
  T/C: 93 % of control

## CC1C(=O)OC(C)(C)C1(C)C (stereo not given)
endpoint: mean survival time, dose: 25.0 mg/kg/injection, schedule: Q01DX009 (ip), vehicle: saline with Tween-80
  T/C: 98 % of control
endpoint: mean survival time, dose: 50.0 mg/kg/injection, schedule: Q01DX009 (ip), vehicle: saline with Tween-80
  T/C: 98 % of control
[3]
  T/C: 104 % of control

## CCC(C(C)N1CC(=O)NC(=O)C1)N1CC(=O)NC(=O)C1 (stereo not given)
endpoint: mean survival time, dose: 0.06 mg/kg/injection, schedule: Q01DX009 (ip), vehicle: Klucel (hydroxypropylcellulose) (HPC)
  T/C: 109 % of control
endpoint: mean survival time, dose: 0.13 mg/kg/injection, schedule: Q01DX009 (ip), vehicle: Klucel (hydroxypropylcellulose) (HPC)
  T/C: 114 % of control
endpoint: mean survival time, dose: 0.5 mg/kg/injection, schedule: Q04DX003 (ip), vehicle: Klucel (hydroxypropylcellulose) (HPC)
  T/C: 119 % of control
endpoint: mean survival time, dose: 1.0 mg/kg/injection, schedule: Q01DX009 (ip), vehicle: Klucel (hydroxypropylcellulose) (HPC)
  T/C: 120 % of control
endpoint: mean survival time, dose: 1.0 mg/kg/injection, schedule: Q04DX003 (ip), vehicle: Klucel (hydroxypropylcellulose) (HPC)
  T/C: 154 % of control
endpoint: mean survival time, dose: 2.0 mg/kg/injection, schedule: Q01DX009 (ip), vehicle: Klucel (hydroxypropylcellulose) (HPC)
  T/C: 89 % of control
endpoint: mean survival time, dose: 2.0 mg/kg/injection, schedule: Q04DX003 (ip), vehicle: Klucel (hydroxypropylcellulose) (HPC)
  T/C: 178 % of control
endpoint: mean survival time, dose: 4.0 mg/kg/injection, schedule: Q04DX003 (ip), vehicle: Klucel (hydroxypropylcellulose) (HPC)
  T/C: 167 % of control
endpoint: mean survival time, dose: 8.0 mg/kg/injection, schedule: Q04DX003 (ip), vehicle: Klucel (hydroxypropylcellulose) (HPC)
  T/C: 100 % of control

## Nc1nc(N)c2c(n1)NCN(CCc1c(Cl)cccc1Cl)C2
endpoint: mean survival time, dose: 0.75 mg/kg/injection, schedule: Q01DX009 (ip), vehicle: distilled water + Tween-80
  T/C: 98 % of control
endpoint: mean survival time, dose: 1.5 mg/kg/injection, schedule: Q01DX009 (ip), vehicle: distilled water + Tween-80
  T/C: 102 % of control
endpoint: mean survival time, dose: 3.0 mg/kg/injection, schedule: Q01DX009 (ip), vehicle: distilled water + Tween-80
  T/C: 98 % of control
endpoint: mean survival time, dose: 6.0 mg/kg/injection, schedule: Q01DX009 (ip), vehicle: distilled water + Tween-80
  T/C: 98 % of control
endpoint: mean survival time, dose: 12.0 mg/kg/injection, schedule: Q01DX009 (ip), vehicle: distilled water + Tween-80
  T/C: 104 % of control
endpoint: mean survival time, dose: 24.0 mg/kg/injection, schedule: Q01DX009 (ip), vehicle: distilled water + Tween-80
  T/C: 98 % of control
endpoint: mean survival time, dose: 37.5 mg/kg/injection, schedule: Q01DX009 (ip), vehicle: distilled water + Tween-80
  T/C: 100 % of control
endpoint: mean survival time, dose: 75.0 mg/kg/injection, schedule: Q01DX009 (ip), vehicle: distilled water + Tween-80
  T/C: 97 % of control

## CCn1cnc2c(=S)nc[nH]c21
endpoint: mean survival time, dose: 9.4 mg/kg/injection, schedule: Q03HX024 (ip), vehicle: saline
  T/C: 107 % of control
endpoint: mean survival time, dose: 15.0 mg/kg/injection, schedule: Q01DX009 (ip), vehicle: saline
  T/C: 104 % of control
endpoint: mean survival time, dose: 15.0 mg/kg/injection, schedule: Q03HX008 (ip), vehicle: saline
  T/C: 121 % of control
endpoint: mean survival time, dose: 18.8 mg/kg/injection, schedule: Q03HX016 (ip), vehicle: saline
  T/C: 101 % of control
endpoint: mean survival time, dose: 30.0 mg/kg/injection, schedule: Q01DX009 (ip), vehicle: saline
  T/C: 113 % of control
endpoint: mean survival time, dose: 37.5 mg/kg/injection, schedule: Q03HX024 (ip), vehicle: saline
  T/C: 156 % of control
endpoint: mean survival time, dose: 56.3 mg/kg/injection, schedule: Q03HX024 (ip), vehicle: saline
  T/C: 163 % of control
endpoint: mean survival time, dose: 60.0 mg/kg/injection, schedule: Q03HX008 (ip), vehicle: saline
  T/C: 161 % of control
endpoint: mean survival time, dose: 75.0 mg/kg/injection, schedule: Q03DX003 (ip), vehicle: saline
  T/C: 101 % of control
endpoint: mean survival time, dose: 75.0 mg/kg/injection, schedule: Q03HX016 (ip), vehicle: saline
  T/C: 161 % of control
endpoint: mean survival time, dose: 75.0 mg/kg/injection, schedule: Q04DX003 (ip), vehicle: saline
  T/C: 108 % of control and 109 % of control
endpoint: mean survival time, dose: 120.0 mg/kg/injection, schedule: Q01DX009 (ip), vehicle: saline
  T/C: 87 % of control
endpoint: mean survival time, dose: 150.0 mg/kg/injection, schedule: Q01DX001 (ip), vehicle: saline
  T/C: 115 % of control
endpoint: mean survival time, dose: 150.0 mg/kg/injection, schedule: Q01DX007 (ip), vehicle: saline
  T/C: 96 % of control
endpoint: mean survival time, dose: 150.0 mg/kg/injection, schedule: Q01DX009 (ip), vehicle: saline
  T/C: 106 % of control
endpoint: mean survival time, dose: 150.0 mg/kg/injection, schedule: Q03DX003 (ip), vehicle: saline
  T/C: 112 % of control
endpoint: mean survival time, dose: 300.0 mg/kg/injection, schedule: Q04DX003 (ip), vehicle: saline
  T/C: 112 % of control
endpoint: mean survival time, dose: 300.0 mg/kg/injection, schedule: Q08DX002 (ip), vehicle: saline
  T/C: 151 % of control
endpoint: mean survival time, dose: 600.0 mg/kg/injection, schedule: Q08DX002 (ip), vehicle: saline
  T/C: 105 % of control
endpoint: median survival time, dose: 12.5 mg/kg/injection, schedule: Q01DX009 (ip), vehicle: saline with Tween-80
  T/C: 118 % of control
endpoint: median survival time, dose: 25.0 mg/kg/injection, schedule: Q01DX009 (ip), vehicle: saline with Tween-80
  T/C: 118 % of control
endpoint: median survival time, dose: 31.3 mg/kg/injection, schedule: Q01DX009 (ip), vehicle: saline
  T/C: 100 % of control and 111 % of control
endpoint: median survival time, dose: 62.5 mg/kg/injection, schedule: Q01DX009 (ip), vehicle: saline
  T/C: 188 % of control
endpoint: median survival time, dose: 100.0 mg/kg/injection, schedule: Q01DX009 (ip), vehicle: saline with Tween-80
  T/C: 183 % of control
endpoint: median survival time, dose: 125.0 mg/kg/injection, schedule: Q01DX009 (ip), vehicle: saline
  T/C: 116 % of control
endpoint: median survival time, dose: 200.0 mg/kg/injection, schedule: Q01DX009 (ip), vehicle: saline with Tween-80
  T/C: 118 % of control

## COC(=O)C(N)CSCSCc1ccccc1 (stereo not given)
[4]
  T/C: 101 % of control
[5]
  T/C: 93 % of control
[6]
  T/C: 93 % of control

## CC(=O)Nc1ccc([N+](=O)[O-])c(C(F)(F)F)c1
[3]
  T/C: 98 % of control
endpoint: mean survival time, dose: 200.0 mg/kg/injection, schedule: Q04DX003 (ip), vehicle: saline with Tween-80
  T/C: 103 % of control

## O=[N+]([O-])c1ccccc1-c1nn(-c2ccccc2)c2ccccc12
endpoint: mean survival time, dose: 12.5 mg/kg/injection, schedule: Q04DX002 (ip), vehicle: saline with Tween-80
  T/C: 102 % of control
[1]
  T/C: 105 % of control
[2]
  T/C: 90 % of control

## C1CN2CCN1CC2.O.[Cl][Pt][Cl]
endpoint: mean survival time, dose: 12.5 mg/kg/injection, schedule: Q01DX005 (ip), vehicle: water
  T/C: 97 % of control
[4]
  T/C: 92 % of control
[5]
  T/C: 92 % of control
endpoint: mean survival time, dose: 50.0 mg/kg/injection, schedule: Q04DX003 (ip), vehicle: water
  T/C: 102 % of control
[6]
  T/C: 96 % of control
endpoint: mean survival time, dose: 100.0 mg/kg/injection, schedule: Q04DX003 (ip), vehicle: water
  T/C: 94 % of control
endpoint: mean survival time, dose: 200.0 mg/kg/injection, schedule: Q01DX005 (ip), vehicle: water
  T/C: 96 % of control
endpoint: mean survival time, dose: 200.0 mg/kg/injection, schedule: Q04DX003 (ip), vehicle: water
  T/C: 95 % of control
endpoint: mean survival time, dose: 400.0 mg/kg/injection, schedule: Q04DX003 (ip), vehicle: water
  T/C: 107 % of control

## O=C(NCc1ccccc1)c1ccccc1/C(=N/O)c1ccccc1
endpoint: mean survival time, dose: 100.0 mg/kg/injection, schedule: Q01DX001 (ip), vehicle: saline sonified
  T/C: 92 % of control
endpoint: mean survival time, dose: 200.0 mg/kg/injection, schedule: Q01DX001 (ip), vehicle: saline sonified
  T/C: 94 % of control
endpoint: mean survival time, dose: 400.0 mg/kg/injection, schedule: Q01DX001 (ip), vehicle: saline sonified
  T/C: 88 % of control

## C1=CC2CC2C1 (stereo not given)
endpoint: median survival time, dose: 50.0 mg/kg/injection, schedule: Q04DX002 (ip), vehicle: saline with Tween-80
  T/C: 88 % of control
endpoint: median survival time, dose: 100.0 mg/kg/injection, schedule: Q04DX002 (ip), vehicle: saline with Tween-80
  T/C: 88 % of control
endpoint: median survival time, dose: 200.0 mg/kg/injection, schedule: Q04DX002 (ip), vehicle: saline with Tween-80
  T/C: 88 % of control
endpoint: median survival time, dose: 400.0 mg/kg/injection, schedule: Q04DX002 (ip), vehicle: saline with Tween-80
  T/C: 88 % of control

## NC(N)=NCCCC(N=Cc1ccccc1)C(=O)O (stereo not given)
endpoint: mean survival time, dose: 100.0 mg/kg/injection, schedule: Q01DX001 (ip), vehicle: saline
  T/C: 102 % of control
endpoint: mean survival time, dose: 200.0 mg/kg/injection, schedule: Q01DX001 (ip), vehicle: saline
  T/C: 102 % of control
endpoint: mean survival time, dose: 400.0 mg/kg/injection, schedule: Q01DX001 (ip), vehicle: saline
  T/C: 90 % of control
